For orientation: Ki means a dissociation constant, usually derived from enzyme kinetics or from competition with a known ligand. Lower therefore signals higher affinity. The term IC50 denotes the midpoint of a concentration-inhibition curve.

The structures appear in SMILES notation.

Here are results for 29 compounds from patent publication US8269013B2, “Substituted pyrazole inhibitors of c-Met protein kinase” (Vertex Pharmaceuticals Incorporated, priority 2009, dated 2012).

The target in one assay is c-Met (Homo sapiens, UniProt P08581). As to the kind of experiment: c-Met kinase inhibition assay (radiometric, 33P-ATP, polyE4Y). The assay is classed as biochemical. As to conditions: 0.5 nM c-Met, 35 μM ATP, 0.5 mg/mL polyE4Y, 20 min; competitive tight-binding fit. The protocol: The compounds of the invention were screened for their ability to inhibit c-Met kinase using a standard radiometric assay. Briefly, in this kinase assay the transfer of the terminal ^33P-phosphate in ^33P-ATP to substrate polyE4Y is interrogated. […] Accordingly, compounds of the invention were dissolved in DMSO to make 10 mM initial stock solutions. Serial dilutions in DMSO were then made to obtain the final solutions for the assay. A 1.5 μL aliquot of DMSO or inhibitor in DMSO was added to each well, followed by the addition of ^33P-ATP, and finally the addition of c-Met and polyE4Y (obtained from Sigma). After 20 min, the reaction was quenched with 50 μL of 30% trichloroacetic acid (TCA) containing 4 mM ATP. The reaction mixture was transferred to the 0.66 mm GF filter plates (Corning) and washed three times with 5% TCA. Following the addition of 50 μL of Ultimate Gold™ high efficiency scintillant (Packard Bioscience), the samples were counted in a Packard TopCount NXT Microplate Scintillation and Luminescence Counter (Packard BioScience). The Ki values, shown in Table 2, were calculated using Microsoft Excel Solver macros to fit the data to the kinetic model for competitive tight-binding inhibition.
Sequence of c-Met (P08581 25-1390): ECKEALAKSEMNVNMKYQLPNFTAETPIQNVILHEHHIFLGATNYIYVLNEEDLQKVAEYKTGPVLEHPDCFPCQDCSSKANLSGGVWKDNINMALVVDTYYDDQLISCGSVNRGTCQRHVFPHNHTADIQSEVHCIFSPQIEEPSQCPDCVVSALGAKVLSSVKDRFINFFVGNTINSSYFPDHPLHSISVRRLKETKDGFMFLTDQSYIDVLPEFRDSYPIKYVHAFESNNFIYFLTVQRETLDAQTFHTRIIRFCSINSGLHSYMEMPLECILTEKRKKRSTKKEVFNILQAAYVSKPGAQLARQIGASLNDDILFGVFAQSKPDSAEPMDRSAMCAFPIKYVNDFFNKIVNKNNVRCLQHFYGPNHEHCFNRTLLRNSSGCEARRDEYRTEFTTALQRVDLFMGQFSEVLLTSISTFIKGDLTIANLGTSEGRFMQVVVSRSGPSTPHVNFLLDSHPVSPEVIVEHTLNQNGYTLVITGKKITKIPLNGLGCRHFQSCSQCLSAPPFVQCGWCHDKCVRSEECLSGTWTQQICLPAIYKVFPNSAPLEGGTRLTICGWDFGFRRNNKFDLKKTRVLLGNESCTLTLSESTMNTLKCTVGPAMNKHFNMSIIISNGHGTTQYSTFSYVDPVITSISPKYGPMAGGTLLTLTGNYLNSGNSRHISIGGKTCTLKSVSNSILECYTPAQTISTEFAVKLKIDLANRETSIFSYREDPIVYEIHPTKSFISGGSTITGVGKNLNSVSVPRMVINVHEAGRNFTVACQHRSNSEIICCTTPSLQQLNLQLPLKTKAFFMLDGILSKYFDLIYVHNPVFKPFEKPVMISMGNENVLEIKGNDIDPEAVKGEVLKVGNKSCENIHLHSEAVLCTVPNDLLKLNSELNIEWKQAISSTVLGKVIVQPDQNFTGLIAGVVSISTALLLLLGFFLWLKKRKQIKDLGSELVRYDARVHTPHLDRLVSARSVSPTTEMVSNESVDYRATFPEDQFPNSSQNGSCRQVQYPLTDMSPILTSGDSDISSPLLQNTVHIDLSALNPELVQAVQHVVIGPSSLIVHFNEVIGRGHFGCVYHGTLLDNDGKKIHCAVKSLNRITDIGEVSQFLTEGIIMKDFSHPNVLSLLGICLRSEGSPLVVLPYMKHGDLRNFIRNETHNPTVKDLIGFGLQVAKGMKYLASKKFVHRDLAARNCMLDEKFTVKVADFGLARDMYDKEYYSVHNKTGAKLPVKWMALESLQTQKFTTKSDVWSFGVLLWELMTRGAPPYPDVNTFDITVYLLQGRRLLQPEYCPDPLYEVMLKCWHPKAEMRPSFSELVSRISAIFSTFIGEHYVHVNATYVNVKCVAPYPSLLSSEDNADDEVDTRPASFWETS

The test system of assay [1] is c-Met in Snu5-AP1-Luc-Pest cells. The assay can be described thus: Inhibition of c-Met activity in Snu5 gastric carcinoma cells (Snu5-AP1-Luc-Pest luciferase reporter). The assay is classed as cell-based, human. As to conditions: Steady-Glo luminescence, 4-parameter fit. The text has this:
Compounds of formula I were also screened for their ability to inhibit the Luciferase-induced signal in an engineered Snu5 cell line. […] The constitutively active c-Met activates cellular pathways (principally MAP kinase), resulting in AP-1-induced transcription of luciferase-PEST and translation into the final product, the activity of which is quantifiable as a chemiluminescent readout upon the addition of luciferin (Steady-Glo from Promega.). Residual luminescence is strongly correlated to the inhibition of c-Met. A stable cell line was obtained by selecting the new cell line (Snu5-AP1-Luc-Pest) with puromycin. The cells were grown in complete media [Iscove's media (Invitrogen) containing 10% fetal bovine serum (FBS, Hyclone) and penicillin/gentamycin (Invitrogen)]. Compounds of the invention were dissolved in DMSO to make 10 mM initial stock solutions. Serial dilutions in DMSO were then made and transferred to complete medium to make a 10× solution. The Snu5-AP1-Luc-Pest cells were counted and diluted to 200,000-cells/mL solution. The cells (90 μL) were added to each well in a 96-well black with clear bottom plate (Costar). Then 10 μL of the 10× compound solution was added to the cells in triplicate. The plates were incubated in a 37° C./5% CO2 incubator. After 6 hours, 50 μL of the Steady-Glo reagent (Promega) was added to each well and placed on a plate shaker for 5 minutes to ensure that the cells were completely lysed.
Background: In a reporter assay the amount or activity of a reporter protein is the signal.

Take `Cc1nn(C)cc1-c1nn2c([C@H](C)c3ccc4ncccc4c3)nnc2s1` [Compound 5]: the Ki at c-Met worked out at 24 nM. In assay [1] (Homo sapiens, SNU-5, 6 hours), this compound displayed an IC50 of 2.5 nM. The corresponding values for `CCc1nn(C)cc1-c1nn2c(Cc3c(F)cc4ncccc4c3F)nnc2s1` [Compound 15] are 2.5 nM and 2 nM. Regarding `CC(C)c1nn(C)cc1-c1nn2c(Cc3c(F)cc4ncccc4c3F)nnc2s1` [Compound 16], the Ki on c-Met turned out to be 2.4 nM. For the same compound, the 50% inhibitory concentration (IC50) in assay [1] (Homo sapiens, SNU-5, 6 hours) was 3 nM. Turning to `CC(C)c1nn(C)cc1-c1nn2c(Cc3ccc4ncccc4c3)nnc2s1` [Compound 4], the IC50 in assay [1] (6 hours) came out at 3 nM. Consider `Cn1cc(-c2nn3c(Cc4c(F)cc5ncccc5c4F)nnc3s2)c(C(F)(F)F)n1` [Compound 17], for which, on c-Met, the affinity corresponds to a Ki of 2 nM. Moreover, 2.5 nM corresponded to half-maximal inhibition in assay [1] (Homo sapiens, SNU-5, 6 hours) (IC50). Compound `C[C@H](c1ccc2ncccc2c1)c1nnc2sc(-c3cn(C)nc3C3CC3)nn12` [Compound 8] had an inhibitory constant (Ki) at c-Met of 24 nM. In assay [1] (Homo sapiens, SNU-5, 6 hours), the IC50 amounted to 3 nM. In the case of `C[C@H](c1ccc2ncccc2c1)c1nnc2sc(-c3cnn(C)c3)nn12` [reference compound], at c-Met, the Ki stood at 243 nM. Further, the IC50 in assay [1] (Homo sapiens, SNU-5, 6 hours) came to 90 nM. In turn, `C[C@H](c1c(F)cc2ncccc2c1F)c1nnc2sc(-c3cnn(C)c3)nn12` [reference compound] showed a Ki at c-Met of 70 nM. Also, in assay [1] (Homo sapiens, SNU-5, 6 hours), half-maximal inhibition (IC50) was put at 60 nM. For `C[C@@H](c1ccc2ncccc2c1)c1nnc2sc(-c3cn(C)nc3C(F)(F)F)nn12` [Compound 11] the same measures were 3 nM and 2 nM. The corresponding values for `C[C@H](c1ccc2ncccc2c1)c1nnc2sc(-c3cn(C)nc3C(F)(F)F)nn12` [Compound 6] are 7 nM and 2 nM.

Consider `Cc1nn(C)cc1-c1nn2c(Cc3c(F)cc4ncccc4c3F)nnc2s1` [Compound 14], for which the Ki at c-Met stood at 7 nM. In assay [1] (Homo sapiens, SNU-5, 6 hours), this compound showed a concentration for half-maximal inhibition (IC50) of 2 nM. For `Cc1nn(C)cc1-c1nn2c([C@@H](C)c3c(F)cc4ncccc4c3F)nnc2s1` [Compound 18] the same measures were 2 nM and 0.5 nM.

Regarding `C[C@@H](c1ccc2ncccc2c1)c1nnc2sc(-c3cn(C)nc3C3CC3)nn12` [Compound 12], affinity on c-Met was put at a Ki of 7 nM. The compound further showed an IC50 in assay [1] (Homo sapiens, SNU-5, 6 hours) of 7 nM. Regarding `CC(C)c1nn(C)cc1-c1nn2c(C(F)(F)c3ccc4ncccc4c3)nnc2s1` [Compound 21], on c-Met, affinity was put at a Ki of 4 nM. Besides, in assay [1] (Homo sapiens, SNU-5, 6 hours), the IC50 was 6 nM. The compound `Cc1nn(C)cc1-c1nn2c(C(C)(C)c3ccc4ncccc4c3)nnc2s1` [Compound 13] returned a Ki on c-Met of 360 nM. In addition, in assay [1] (Homo sapiens, SNU-5, 6 hours), the IC50 worked out at 250 nM.

`CCc1nn(C)cc1-c1nn2c([C@@H](C)c3ccc4ncccc4c3)nnc2s1` [Compound 10] showed a Ki at c-Met of 5 nM. For the same compound, the IC50 in assay [1] (Homo sapiens, SNU-5, 6 hours) is 6.2 nM. The corresponding values for `C[C@@H](c1c(F)cc2ncccc2c1F)c1nnc2sc(-c3cnn(C)c3)nn12` [reference compound] are 5 nM and 6 nM.

Take `Cc1nn(C)cc1-c1nn2c([C@H](C)c3c(F)cc4ncccc4c3F)nnc2s1` [Compound 19]: the affinity on c-Met, expressed as Ki, was 22 nM. In assay [1] (Homo sapiens, SNU-5, 6 hours), this compound returned an IC50 of 5 nM.

For the compound `Cn1cc(-c2nn3c(C(F)(F)c4ccc5ncccc5c4)nnc3s2)cn1` [reference compound], the affinity at c-Met corresponds to a Ki of 36 nM. This compound also returned an IC50 in assay [1] (Homo sapiens, SNU-5, 6 hours) of 14 nM. With `CCc1nn(C)cc1-c1nn2c(Cc3ccc4ncccc4c3)nnc2s1` [Compound 2], the IC50 in assay [1] (6 hours) was 4 nM. Compound `Cc1nn(C)cc1-c1nn2c(Cc3ccc4ncccc4c3)nnc2s1` [Compound 1] displayed an IC50 in assay [1] (6 hours) of 2 nM. Compared with the last compound, the IC50 is about 2-fold lower. Turning to `CCc1nn(C)cc1-c1nn2c([C@H](C)c3ccc4ncccc4c3)nnc2s1` [Compound 7], on c-Met, the Ki was 10 nM. In addition, the IC50 in assay [1] (Homo sapiens, SNU-5, 6 hours) was found to be 6 nM. Take `Cn1cc(-c2nn3c(C(C)(C)c4ccc5ncccc5c4)nnc3s2)cn1` [reference compound]: at c-Met, the Ki turned out to be 3400 nM. In assay [1] (Homo sapiens, SNU-5, 6 hours), this compound gave an IC50 above 1000 nM. In assay [1] (6 hours), `Cn1cc(-c2nn3c(Cc4ccc5ncccc5c4)nnc3s2)c(C(F)(F)F)n1` [Compound 3] returned an IC50 of 2 nM. `Cn1cc(-c2nn3c(Cc4c(F)cc5ncccc5c4F)nnc3s2)cn1` [reference compound] registered a Ki on c-Met of 16 nM. The compound further had a half-maximal inhibitory concentration (IC50) in assay [1] (Homo sapiens, SNU-5, 6 hours) of 12 nM. `Cn1cc(-c2nn3c(Cc4ccc5ncccc5c4)nnc3s2)cn1` [reference compound] registered a concentration for half-maximal inhibition (IC50) in assay [1] (Homo sapiens, SNU-5, 6 hours) of 85 nM. For `Cc1nn(C)cc1-c1nn2c(C(F)(F)c3ccc4ncccc4c3)nnc2s1` [Compound 20], at c-Met, the affinity, expressed as Ki, was 14 nM. The compound also showed an IC50 in assay [1] (Homo sapiens, SNU-5, 6 hours) of 4 nM. At c-Met, `C[C@@H](c1ccc2ncccc2c1)c1nnc2sc(-c3cnn(C)c3)nn12` [reference compound] yielded an inhibition constant (Ki) of 24 nM. Besides, the IC50 in assay [1] (Homo sapiens, SNU-5, 6 hours) is 15 nM. The compound `Cc1nn(C)cc1-c1nn2c([C@@H](C)c3ccc4ncccc4c3)nnc2s1` [Compound 9] showed a Ki on c-Met of 15 nM. The compound further showed an IC50 in assay [1] (Homo sapiens, SNU-5, 6 hours) of 3 nM.
